According to publication PMC6783563 (Frontiers in Microbiology, 2019):
Entries after “also recorded” stand apart in the source; their conditions may differ. Like-named read-outs stand apart in the source and are kept apart here. Residues, ends and D or L forms follow the SMILES beside them. *: point of attachment. Orn(α-tetramethylguanidino) = CN(C)C(=N[C@@H](CCCN)C(=O)*)N(C)C

Tests used:
CD-1 mice = experiment: Tolerance study after intravenous injection in mice; format: in vivo, mouse; details: female CD-1 mice, n = 2
Experimental: (§1) Eight female CD-1 mice (22–30 g, n = 2) or four SD rats (218–260 g, n = 1) were treated iv (10 and 5 mL/kg, respectively) with Api137 formulated in 0.9% saline (TEKnova, Hollister, CA, United States) at concentrations of 5, 10, 25, and 50 mg/kg body weight and their behavior monitored for 24 h.

SD rats = experiment: Tolerance study after intravenous injection in rats; format: in vivo, rat; details: monitored 24 h, n = 1
Experimental: as §1

[1] = Pharmacokinetics: Api137 plasma levels after iv or sc injection in mice; set-up: species or system CD-1 mice; details: in vivo
Experimental: (§2) Api137 dissolved in 0.9% saline was injected iv or sc in mice (18–26 g, total = 51) and rats (204–248 g, total = 12) at a dose volume of 10 and 5 mL/kg BW, respectively, according to the dosing scheme (Supplementary Figures 1, 2). Three mice per dose and time point were euthanized by carbon dioxide inhalation and blood was collected via cardiac puncture into K2-EDTA Microtainer® tubes (Becton Dickinson and Company, BD, Franklin Lakes, NJ, United States). Additionally, blood was collected via saphenous vein puncture from three rats into identic tubes.
(§3) Api137 was quantified in EDTA plasma samples using reversed-phase chromatography (RP-HPLC) coupled to electrospray ionization mass spectrometry (ESI-MS/MS) at TNO Triskelion (Zeist, Netherlands). Analog Api134 was used as internal standard. Briefly, internal standard solution (10 μL, 5 mg/L) was added to a plasma sample (50 μL) and mixed with aqueous phosphoric acid (50 μL; 4%, v/v). Solid phase extraction was performed on a WCX micro-elution plate (Waters Corporation, Milford, MA, United States) with a final elution using aqueous acetonitrile (75%, v/v) containing 1% (v/v) trifluoroacetic acid. Extracts were analyzed on an Acquity C18 BEH column (2.1 mm internal diameter, 10 cm length, 1.7 μm particle size; Waters) using an Acquity UPLC system coupled online to a XEVO TQS mass spectrometer (Waters; for details see Supplementary Material). Alternatively, Api137 and metabolites 1–16 and 1–17 were quantified for selected samples in house as reported recently ([Schmidt et al., 2017]).
(§4) 1. Quantitative analysis of Api137 in plasma using a LC-MS/ MS method
(§5) Chemicals were obtained from the following manufacturers. Biosolve B.V. (Valkenswaard, The Netherlands): acetonitrile, formic acid, methanol (all ULC/MS grade); Sigma-Aldrich (St.
(§6) Louis, MO, USA): phosphoric acid (Fluka, 85%), trifluoroacetic acid (Reagent Plus, 99%); Merck KGaA (Darmstadt, Germany): ammonia (25%); water (Milli -Q® Advantage A10 Water […]
(§7) Internal standard solution (10 µL, Api134, 5 µg/mL) was added to a plasma sample (50 µL or 25 µL) and mixed with aqueous phosphoric acid (50 µL or 75 µL; 4%, v/v). Solid phase extraction (SPE) was performed on a WCX micro -elution plate (2 mg, Waters):
(§8) Conditioning I Methanol 200
(§9) Conditioning II Purified water 200
(§10) Sample application Diluted plasma sample 110
(§11) Wash step I Aqueous ammonia (5%, v/v) 200
(§12) Wash step II Aqueous acetonitrile (20%, v/v) 200
(§13) Elution I Aqueous acetonitrile (75%, v/v) including trifluoroacetic 50 […]
(§14) Elution II Aqueous acetonitrile (75%, v/v) including trifluoroacetic 50 […]
(§15) Water (100 µL) was added to the eluate and the plate was covered to avoid avaporation. The plate was shaken (10 min, plate shaker) and the extract was analysed using RPC-MS/MS.
(§16) (1 picture or pasted object on this page, not shown here)
(§17) 1.2.RPC-ESI-MS/MS equipment and conditions
(§18) Equipment/Parameter Value
(§19) UPLC system Acquity (Micromass Waters)
(§20) UPLC column temperature 50 °C
(§21) Autosampler temperature 10 °C […]
(§22) Mobile phase A 1% formic acid in water
(§23) Mobile phase B 1% formic acid in acetonitrile
(§24) Strong Wash [Volume] Methanol/Water/Formic acid (80/20/0.1) [200 µL]
(§25) Weak wash [Volume] Acetonitrile/Water/Trifluoroacetic acid (40/60/0.25) [600 µL]
(§26) Mass spectrometer XEVO TQS (Micromass Waters)
(§27) Ionization mode Electrospray ionization (positive mode)
(§28) Source temperature 150 °C
(§29) Desolvation temperature 600 °C
(§30) Desolvation gas flow 1000 L/h
(§31) Time [min] Mobile phase B [%]
(§32) 1.4.Conditions for multiple reaction monitoring
(§33) Peptide Precursor ion (m/z) Product ion (m/z) Cone [V] Collision energy [eV]
(§34) The peak area of the peptides was obtained using MassLynx 4.1 software (Micromass Waters). The peak a rea ratio (PAR) of peptide Api137 and the internal standard Api134 (Y-axis) was plotted versus the actual peptide concentration (x -axis) to construct a calibration […]
(§35) Supplementary Figure 1 : Dosing schemes and time -points of blood collection for pharmacokinetic analysis of three mice per dose group and time -point. […]

in vivo = experiment: in vivo; set-up: species or system Sprague Dawley rats; details: Sprague Dawley, rat
Experimental: as §2, §3, §4, §5, §6, §7, §8, §9, §10, §11, §12, §13, §14, §15, §16, §17, §18, §19, §20, §21, §22, §23, §24, §25, §26, §27, §28, §29, §30, §31, §32, §33, §34, §35

[2] = mouse, in vivo, cited from earlier work
From the text: In particular, cationic proline-rich antimicrobial peptides (PrAMPs) belong to the second group binding to the negatively charged bacteria surface by electrostatic interactions through basic amino acid residues. Proline residues account for extended, partially polyproline helix II-like secondary structures that most likely support free penetration through the outer membrane of Gram-negative bacteria. PrAMPs accumulate in the periplasmic space where the transporters SbmA and MdtM actively translocate them into the cells ([Mattiuzzo et al., 2007]; [Runti et al., 2013]; [Krizsan et al., 2015a]). ... || Severe multi-drug resistant infections are treated under medical supervision in the hospital using intravenous injection or infusion as preferred administration route for rapid and controlled achievement of efficacious drug plasma levels. […] Unexpectedly, the maximal plasma levels of 6.8 mg/L obtai ...

mouse = details: in vivo, ip, 10 mg/kg; cited from earlier work
From the text: In particular, cationic proline-rich antimicrobial peptides (PrAMPs) belong to the second group binding to the negatively charged bacteria surface by electrostatic interactions through basic amino acid residues. Proline residues account for extended, partially polyproline helix II-like secondary structures that most likely support free penetration through the outer membrane of Gram-negative bacteria. PrAMPs accumulate in the periplasmic space where the transporters SbmA and MdtM actively translocate them into the cells ([Mattiuzzo et al., 2007]; [Runti et al., 2013]; [Krizsan et al., 2015a]). ...

[3] = EDTA plasma of CD-1 mice after continuous sc infusion of Api137 (12.8 mg/kg/h) using ALZET osmotic pumps; details: up to 24 h
[4] = test system: Escherichia coli ATCC 25922; experiment: Lethal murine intraperitoneal sepsis (infection) model; format: in vivo, CD-1 mice; details: control, iv 0.25 mg/kg at 1 h post infection, n = 6
Experimental: Escherichia coli ATCC 25922 was obtained from American Type Culture Collection (Manassas, VA, United States). Cells were grown overnight on solid agar, suspended in saline and adjusted to an OD of 0.1 at 625 nm. The suspension was further diluted in 5% hog gastric mucin (Sigma-Aldrich Corporation, St. Louis, MO, United States) and final inoculums between 4.8 × 10^5 and 2.0 × 10^6 colony forming units (cfu) per mouse were injected ip (500 μL). Api137 and levofloxacin was dissolved in sterile saline and sterile water, respectively, and were administered iv (5 mL/kg) into the tail vein or sc (10 mL/kg) into the back. Alternatively, an hour post infection ALZET® osmotic pumps were implanted under isoflurane anesthesia (see above). After 24 h, pumps were exchanged once and finally removed after 48 h.
The log-rank (Mantel-Cox) test was used for comparison of the survival curves and dose-response curves were fitted with the “dose-response log(inhibitor) vs. normalized response – variable slope” function with “least squares fit” using GraphPad Prism 5.02.

[5] = CD-1, mouse, iv, 5 mg/kg, Plasma level
[6] = CD-1, mouse, iv, 10 mg/kg, Plasma level
[7] = CD-1, mouse, iv, 20 mg/kg, Plasma level
[8] = CD-1, mouse, sc, 20 mg/kg, Plasma level

CC[C@H](C)[C@H](NC(=O)[C@H](Cc1ccc(O)cc1)NC(=O)[C@@H](NC(=O)[C@@H]1CCCN1C(=O)[C@H](CCCNC(=N)N)NC(=O)[C@H](CC(N)=O)NC(=O)[C@H](CC(N)=O)NC(=O)[C@H](CCCN)N=C(N(C)C)N(C)C)C(C)C)C(=O)N1CCC[C@H]1C(=O)N[C@@H](CCCNC(=N)N)C(=O)N1CCC[C@H]1C(=O)N[C@@H](CCCNC(=N)N)C(=O)N1CCC[C@H]1C(=O)N1CCC[C@H]1C(=O)N[C@@H](Cc1c[nH]cn1)C(=O)N1CCC[C@H]1C(=O)N[C@@H](CCCNC(=N)N)C(=O)N[C@@H](CC(C)C)C(=O)O [Api137] ({Orn(α-tetramethylguanidino)}-NNRPVYIPRPRPPHPRL-OH)
Tolerance after iv injection (CD-1 mice; 5 mg/kg iv in 0.9% saline, monitored 24 h): No adverse effects were observed | Tolerance after iv injection (CD-1 mice; 50 mg/kg iv): experienced convulsion and low blood pressure immediately after dosing and died within 1 min | Tolerance after iv injection (CD-1 mice; 10 and 20 mg/kg iv, monitored 24 h): lethargic within minutes directly after dosing with piloerection for the next 45 min but recovered to normal limits within 1 h | Tolerance after iv injection (SD rats; 5 mg/kg iv): No adverse effects were observed | Tolerance after iv injection (SD rats; 10 to 50 mg/kg iv): experienced labored breathing and lethargy but recovered to normal limits within 5 h post injection | level at 0.5 h ([1]; CD-1, mouse, 20 mg/kg, Plasma level after 30 min): ~500 ng/mL | Plasma level ([1]; CD-1, mouse, iv): 5 to 20 ng/mL | level at 245 min ([1]; CD-1, mouse, iv, 5 mg/kg, Plasma concentration): 10100 ng/mL | level at 5 min [1, 5]: 6800 ng/mL | level at 0.5 h [1, 5]: 90 ng/mL | level at 245 min ([1]; CD-1, mouse, iv, 10 mg/kg, Plasma concentration): 10500 ng/mL | level at 5 min [1, 6]: 12900 ng/mL | level at 0.5 h [1, 6]: 300 ng/mL | level at 4.5 h [1, 6]: 160 ng/mL | level at 245 min ([1]; CD-1, mouse, iv, 20 mg/kg, Plasma concentration): 22900 ng/mL | level at 5 min [1, 7]: 23200 ng/mL | level at 0.5 h [1, 7]: 440 ng/mL | level at 125 min [1, 7]: 15400 ng/mL | level at 245 min [1, 7]: 12500 ng/mL | level at 4.5 h [1, 7]: 90 ng/mL | level at 5 min ([1]; CD-1, mouse, sc, 5 mg/kg, Plasma level): 400 ng/mL | level at 5 min ([1]; CD-1, mouse, sc, 10 mg/kg, Plasma level): 900 ng/mL | level at 5 min [1, 8]: 2900 ng/mL | level at 0.5 h [1, 8]: 300 ng/mL | level at 1 h [1, 8]: 14 ng/mL | half-life ([1]; mouse, iv, 20 mg/kg): < 30 min | level at 0.5 h (in vivo; iv): 160 to 210 ng/mL | level at 5 min (in vivo; sc, 5 mg/kg): 100 ng/mL | level at 0.5 h (in vivo; sc, 5 mg/kg): 30 ng/mL | level at 5 min (in vivo; sc, 10 mg/kg): 400 ng/mL | level at 0.5 h (in vivo; sc, 10 mg/kg): 80 ng/mL | level at 5 min (in vivo; sc, 20 mg/kg): 800 ng/mL | level at 0.5 h (in vivo; sc, 20 mg/kg): 250 ng/mL | level at 1 h (in vivo; sc, 20 mg/kg): 20 ng/mL | Plasma level ([2]; ip, 5 mg/kg): 200 ng/mL | Maximal plasma level ([2]; ip, 20 mg/kg): 3.6 mg/L | Plasma level (maximal) ([2]; iv, 5 mg/kg): 400 ng/mL | Immune response (anti-Api137 IgG antibodies) (mouse): Only one mouse showed a very weak immune response with a very low level of anti-Api137 IgG antibodies

Gu-ONNRPVYIPRPRPPHPRL-OH
fragment found [3]: Api137(1-17), major, 1 h; also recorded: Api137(1-16), major, 1 h

C[C@H]1COc2c(N3CCN(C)CC3)c(F)cc3c(=O)c(C(=O)O)cn1c23 [levofloxacin]
Efficacy compared with Api137 [4]: more efficacious
